Assay [1] concerns OP91 in HeLa TRex Flp-In cells. The experiment in a line: Steady state OP91 (model MLP) levels on co-expression, quantitative western blotting. The class given is cell-based. The settings on record: co-expression of SGTA-V5 compared with K160E/R164E mutant or PEX19 control; normalised to tubulin; n = 3; 24 h transfection, 24 h induction. An excerpt:
However, the ability of exogenous SGTA to enhance steady state MLP levels is offset when key residues of the carboxylate clamp, located in its TPR domain, are mutated. […] These finding are consistent with the proposal that a TPR based interaction of exogenous SGTA contributes to its effects on steady state MLP levels. […]
Figure 5 The SGTA-Rpn13 interaction alters steady state levels of a model MLP. […] Cells were then harvested directly into sample buffer and analysed by western blotting using primary antibodies to the N-terminus of opsin (OP91), the V5 tag (PEX19 and SGTA) or tubulin (loading control) in combination with secondary antibodies labelled with infrared dyes (LiCor) in order to produce quantitative signals as previously described. (B) OP91 signals were quantified (see Materials and Methods) and normalised to the tubulin loading control, values show standard errors for n = 3. […] (F) OP91 signals were quantified as described for (B), values show standard errors for n = 3. […]

Assay [2] deals with OP91 in HeLa TRex Flp-In cells. The settings on record: overexpression of exogenous SGTA, model MLPs including OP91; cited from earlier work. An excerpt:
However, the ability of exogenous SGTA to enhance steady state MLP levels is offset when key residues of the carboxylate clamp, located in its TPR domain, are mutated. We recapitulated this experiment ...

Assay [3] concerns the target T1, TPR domain of SGTA (SGTA_TPR) (Homo sapiens, UniProt O43765).
T1 construct: thioredoxin A (TxA) fusion (N, cleaved yes); hexahistidine tag (N, cleaved yes); made in house; host or cells: E. coli BL21(DE3) Rosetta
Description: Paramagnetic relaxation enhancement (PRE) of 15N-labelled SGTA_TPR by MTSL labelled K398C Rpn13_260-407. It is filed as binding. The settings on record: MTSL at K398C; 15N-labelled SGTA_TPR to spin labelled Rpn13 1:1.2; pH 6.0; residues Met-102, Lys-103, Glu-105, Lys-137, Ser-170, Asn-173, Ser-197, Lys-200, Ile-201, Glu-203, Ser-211. On the procedure: Using CSP experiments combined with available mutagenesis data, an initial model of a 1:1 complex was generated by a HADDOCK based semi-rigid, data-driven approach using the DMSLD pentapeptide coordinates from the solution NMR structure of Rpn13 (PDB accession code: 2KR0) and the crystal structure of SGTA_TPR (PDB accession code: 2VYI). The three lowest energy HADDOCK clusters of the SGTA_TPR/DMSLD complex were analysed (Figure S7 and Table S1). […] Proximity dependent line broadening of ^15N-labelled SGTA_TPR backbone amide signals was monitored for intermolecular paramagnetic relaxation enhancement (PRE) effects upon addition of MTSL labelled K398C Rpn13_260-407 (Fig. 4B). Significant line broadening effects were observed upon binding in backbone amide peaks of SGTA_TPR residues Met-102, Lys-103, Glu-105, Lys-137, Ser-170, Asn-173, Ser-197, Lys-200, Ile-201, Glu-203, Ser-211, all present on the lower edge of its concave surface lining the entry to the central groove (Fig. 4C,D).
The Rpn13 C-terminal residue Lys 398 was mutated to a cysteine for paramagnetic spin labelling studies. Mutant Rpn13_260-407 was treated with excess TCEP for 2 hours to ensure cysteines were reduced, followed by dialysis against 10 mM potassium phosphate pH 6.0, 100 mM NaCl buffer to remove excess TCEP. […]

T1 sequence (O43765 84-211): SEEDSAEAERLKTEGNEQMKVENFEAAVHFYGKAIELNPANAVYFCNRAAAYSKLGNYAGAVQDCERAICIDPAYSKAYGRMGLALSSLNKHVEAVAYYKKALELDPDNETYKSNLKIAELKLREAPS

As for “SGTA-V5: exogenous V5-tagged SGTA overexpressed from plasmid”, the “change in steady state OP91 level” value in assay [1] was “three-fold increase”. Also, the “steady state MLP levels, earlier studies” value in assay [2] is “typically increases the steady-state levels of model MLPs”.

B1: K398C Rpn13_260-407: Rpn13_260-407 K398C mutant carrying site-directed paramagnetic spin-label (MTSL) (protein, UniProt Q16186 260-407, looked up, variant K398C)
chain: QPIQLSDLQSILATMNVPAGPAGGQQVDLASVLTPEIMAPILANADVQERLLPYLPSGESLPQTADEIQNTLTSPQFQQALGMFSAALASGQLGPLMCQFGLPAEAVEAANKGDVEAFAKAMQNNAKPEQKEGDTKDKCDEEEDMSLD
modifications: MTSL spin label
On to B1, for which the “distance of paramagnetic probe from SGTA_TPR residues with significant line broadening” value in assay [3] is not above 20 Å.

The values are drawn from paper PMC5101480 (Scientific Reports, 2016).
